Article PMC12974487, “Inhibition of FicD-mediated AMPylation and deAMPylation by isoprenoid diphosphates” (Proceedings of the National Academy of Sciences of the …, 2026)

Target: T1, FicD^L258D (Homo sapiens, UniProt Q9BVA6, L258D)
T1 construct: soluble ER luminal domain (residues 105 to 458) of wild-type human FicD and three mutants; 6xHis-Sumo (N, cleaved yes); made in house; host or cells: Rosetta(DE3) E. coli
T1 sequence (Q9BVA6 105-458 L258D): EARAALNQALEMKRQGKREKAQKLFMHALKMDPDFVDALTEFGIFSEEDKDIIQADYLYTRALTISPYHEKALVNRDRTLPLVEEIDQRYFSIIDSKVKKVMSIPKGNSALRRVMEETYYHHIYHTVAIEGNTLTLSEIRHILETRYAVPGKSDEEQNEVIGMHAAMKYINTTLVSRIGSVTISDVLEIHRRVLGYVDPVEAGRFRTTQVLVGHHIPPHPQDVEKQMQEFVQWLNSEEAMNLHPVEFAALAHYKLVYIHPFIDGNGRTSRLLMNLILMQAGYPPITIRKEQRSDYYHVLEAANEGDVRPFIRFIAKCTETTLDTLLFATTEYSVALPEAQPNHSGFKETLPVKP
Experiment: Isothermal titration calorimetry (ITC) with Δ104hFicD^L258D
Type: binding
Conditions: 4 mM MgCl2
Excerpt: To further support this notion, we used Isothermal Titration Calorimetry (ITC) to determine the Kd of FPP binding. […] In these experiments, the interaction between FPP and Mg^2+ generated endothermic peaks that interfered with detecting the interaction between FPP, Mg^2+, and FicD (Fig. 3, Upper). The stoichiometry of FPP binding to FicD was consistently <0.85, which may indicate that Mg^2+ was not saturating. Because the endothermic interaction between Mg^2+ and FPP limited the quantity of MgCl2 we could add, the measured Kd could be larger than the true value.
Fig. 3. ITC with FicD and Farnesyl-pyrophosphate. Representative ITC thermogram for FPP binding to Δ104hFicD^L258D (Upper). […] Dissociation constants (Kd) of individual replicates and global fitting of triplicate isotherms are reported with 1σ error intervals in parenthesis. TEXT PRINTED IN THE PICTURE: no label printed: Kd (nM): 32.3 (15.6, 54.9) (Replicate 1); Kd (nM): 25.6 (10.1, 47.7) (Replicate 2); Kd (nM): 45.2 (29.4, 68.8) (Replicate 3); Kd (nM): 60.3 (23.1, 126.3) (Global) DOUBTS OF THE COPYIST ABOUT THIS PICTURE: The picture prints no substance label; the table rows are replicates and a global fit of one measurement, so all four Kd values are given under one unlabeled substance. […]
Isothermal Titration Calorimetry
Proteins were dialyzed against 25mM HEPES pH 7.4/100mM KCl/10% glycerol prior to titration.
Dialyzed proteins were then spun down at 21,000G for 15 minutes at 4C to remove trace insoluble material. The protein concentration was measured spectrophotometrically and then diluted to working concentration with 25mM HEPES pH 7.4/100mM KCl/10% glycerol. MgCl2 was added to proteins to a final concentration of 4mM. ITC experiments were performed in a Micro-Cal PEAQ-ITC (Malvern Panalytical, Worcestershire, UK) calorimeter with a stirred 206.2 μL reaction cell held at 20 °C. 250μM FPP was titrated into 25uM Δ104hFicL258D with 750rpm stirring. The first injection was 0.5 μL, followed by twenty 1.9 μL injections. ITC data were integrated and baseline corrected using NITPIC 2.1.5 (10, 11). Integrated data was globally analyzed in SEDPHAT 15.b (12) using a model considering a single class of binding sites. […]
10% Lithium dodecyl sulfate, 50% glycerol, 50mM DTT, 0.05% Bromophenol blue) and then heated […]
For deAMPylation assays with FicD and BiP, Δ26hBiPT229A was in-vitro AMPylated by […]
5mM MgCl2, 500uM ATP, 0.5% CHAPS, 1mM DTT. After one hour of incubation at 30-37C, the entire reaction mix was transferred into an Amicon 0.5mL 50kDa MWCO concentrator (cat no.
7.4/150mM NaCl/10% glycerol/1mM DTT was added to the concentrated AMPylation reaction and then spun down again at 14,000 x g at 4C for 5-10 minutes. This step was repeated four times to buffer exchange AMPylated Δ26hBiPT229A.
Δ104hFicDWT and Δ26hBiPT229A-AMP were combined at a ratio of 1:80 in buffer containing 25mM HEPES pH 7.4, 100mM KCl, 5mM MgCl2, 1mM DTT and the indicated small molecule where applicable. Reactions were incubated at 37C for 1 hour and stopped by the addition EDTA. 5X SDS sample buffer (250mM Tris pH 6.8, 10% Lithium dodecyl sulfate, 50% glycerol, 50mM DTT, 0.05% Bromophenol blue) was then added to the reactions and reactions were heated for 5 minutes at […]
For in-vitro AMPylation assays with VopS and CDC42, Δ30VopS and GST-CDC42 – provided by a previous lab member – were combined at a 1:80 molar ratio in 50mM Tris pH 7.4/100mM NaCl/1mM DTT in the presence of GPP or FPP, where applicable. […]

## CC(C)=CCC/C(C)=C/CC/C(C)=C/COP(=O)(O)OP(=O)(O)O [FPP, farnesyl-pyrophosphate]
  stoichiometry of binding to FicD (ITC): < 0.85
